Results from US20260297085A1, “1 H-PYRROLO[2,3-B]PYRIDIN-4-YL]-2-OXOPYRROLIDINE-3-CARBONITRILE DERIVATIVES AS TYROSINE KINASE 2 (TYK2) INHIBITORS FOR THE TREATMENT OF INFLAMMATORY DISEASES” (BIOGEN MA INC., priority 2023, published 2026).
pIC50: −log10 of the molar value. Where a name gives a salt, the structure may show the parent alone.

Columns and labels:
[1] = molecular target: T1, human TYK2 kinase domain (JH1) (Homo sapiens, UniProt P29597); test: JH1 biochemical assay for TYK2 (ADP-Glo kinase assay, recombinant JH1 catalytic domain, JAK3-974 peptide, 10 μM ATP)
T1 construct: recombinantly generated catalytic kinase (also known as JH1) domain of human JAK1, JAK2, JAK3 and TYK2
T1 sequence (P29597 897-1176 limits assumed): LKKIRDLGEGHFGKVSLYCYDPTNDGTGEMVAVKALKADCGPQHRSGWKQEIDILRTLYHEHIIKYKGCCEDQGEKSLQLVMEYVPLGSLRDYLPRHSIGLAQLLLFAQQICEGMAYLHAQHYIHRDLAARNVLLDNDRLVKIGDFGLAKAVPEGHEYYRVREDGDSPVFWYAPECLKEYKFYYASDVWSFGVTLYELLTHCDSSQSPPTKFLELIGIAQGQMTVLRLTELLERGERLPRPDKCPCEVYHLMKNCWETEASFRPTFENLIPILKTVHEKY
Experimental: (§1) Compounds of the disclosure were assessed for their ability to inhibit TYK2, JAK1, JAK2, and JAK3 activity. The inhibitory properties of the compounds of the disclosure described herein can be evidenced by testing in any one of the following protocols.
(§2) The kinase activity of recombinantly generated catalytic kinase (also known as JH1) domain of human JAK1, JAK2, JAK3 and TYK2 were evaluated in a plate-based assay using the ADP-Glo™ Kinase Assay platform. Specifically, 4 nM of recombinant JAK1 kinase domain is used to phosphorylate 50 μM of a JAK3-342 (sequence ALVDGYFRLTT) peptide in the presence of 35 μM ATP. Catalytic activities of recombinant JAK2, JAK3 and TYK2 kinase domain (0.2, 0.3 and 2 nM, respectively) are evaluated by the phosphorylation status of the JAK3-974 (50 μM; sequence LPLDKDYYVVR) peptide with the addition of ATP (15, 4 and 10 μM, respectively). The reactions proceed for 100 minutes and the catalytic activity is quantified by first depleting the unused ATP, converting the hydrolyzed ADP into ATP to generate luminescence in a luciferase reaction; which is the basis of the ADP-Glo platform. Compounds are tested at either 10 μM or 1 μM top concentration, 11 points of 3-fold dilution. The data is normalized and the percent activity versus log concentration of compound is fitted with a 4-parameter logistic model to generate a curve and an IC50 value.

[2] = molecular target: T2, human JAK2 kinase domain (JH1) (Homo sapiens, UniProt O60674); test: JH1 biochemical assay for JAK2 (ADP-Glo kinase assay, recombinant JH1 catalytic domain, JAK3-974 peptide, 15 μM ATP)
T2 construct: recombinantly generated catalytic kinase (also known as JH1) domain of human JAK1, JAK2, JAK3 and TYK2
T2 sequence (O60674 849-1124 limits assumed): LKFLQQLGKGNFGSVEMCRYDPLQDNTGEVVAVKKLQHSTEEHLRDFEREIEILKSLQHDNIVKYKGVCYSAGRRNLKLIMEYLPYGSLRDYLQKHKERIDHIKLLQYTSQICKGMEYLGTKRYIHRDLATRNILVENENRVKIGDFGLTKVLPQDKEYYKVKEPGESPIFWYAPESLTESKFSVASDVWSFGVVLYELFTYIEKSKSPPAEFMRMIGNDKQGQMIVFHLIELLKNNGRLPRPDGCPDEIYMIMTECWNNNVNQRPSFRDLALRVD
Experimental: as §1, §2

[3] = molecular target: T3, human JAK1 kinase domain (JH1) (Homo sapiens, UniProt P23458); test: JH1 biochemical assay for JAK1 (ADP-Glo kinase assay, recombinant JH1 catalytic domain, JAK3-342 peptide, 35 μM ATP)
T3 construct: recombinantly generated catalytic kinase (also known as JH1) domain of human JAK1, JAK2, JAK3 and TYK2
T3 sequence (P23458 875-1153 limits assumed): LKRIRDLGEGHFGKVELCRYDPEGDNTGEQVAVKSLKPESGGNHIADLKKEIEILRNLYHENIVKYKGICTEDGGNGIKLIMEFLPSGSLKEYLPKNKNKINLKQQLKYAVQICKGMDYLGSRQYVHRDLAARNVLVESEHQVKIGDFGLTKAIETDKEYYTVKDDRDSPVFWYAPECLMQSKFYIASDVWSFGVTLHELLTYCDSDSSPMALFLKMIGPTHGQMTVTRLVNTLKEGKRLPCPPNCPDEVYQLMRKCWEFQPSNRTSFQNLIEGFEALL
Experimental: as §1, §2

[4] = molecular target: T4, human JAK3 kinase domain (JH1) (Homo sapiens, UniProt P52333); test: JH1 biochemical assay for JAK3 (ADP-Glo kinase assay, recombinant JH1 catalytic domain, JAK3-974 peptide, 4 μM ATP)
T4 construct: recombinantly generated catalytic kinase (also known as JH1) domain of human JAK1, JAK2, JAK3 and TYK2
T4 sequence (P52333 822-1111 limits assumed): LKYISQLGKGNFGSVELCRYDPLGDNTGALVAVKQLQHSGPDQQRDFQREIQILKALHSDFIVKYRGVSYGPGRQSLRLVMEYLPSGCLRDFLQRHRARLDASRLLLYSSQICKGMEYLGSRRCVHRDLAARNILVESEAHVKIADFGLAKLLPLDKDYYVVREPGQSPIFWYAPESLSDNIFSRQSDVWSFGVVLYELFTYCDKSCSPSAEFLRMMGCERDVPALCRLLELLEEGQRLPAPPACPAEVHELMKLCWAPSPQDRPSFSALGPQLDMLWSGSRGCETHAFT
Experimental: as §1, §2

pIC50 ([1]; JH1 kinase domain, ADP-Glo)	pIC50 ([2]; JH1 kinase domain, ADP-Glo)	pIC50 ([3]; JH1 kinase domain, ADP-Glo)	pIC50 ([4]; JH1 kinase domain, ADP-Glo)	pIC50 ([1]; TYK2 JH1, ADP-Glo)	pIC50 ([2]; JAK2 JH1, ADP-Glo)	pIC50 ([3]; JAK1 JH1, ADP-Glo)	pIC50 ([4]; JAK3 JH1, ADP-Glo)	SMILES
< 7.00	5.30 to 6.00	5.30 to 6.00	5.30 to 6.00	–	–	–	–	Cn1cc(-c2cc3c(N4CC[C@@](C(F)F)(C5CC5)C4=O)ccnn3c2)cn1 [Example 15, (R)-3-cyclopropyl-3-(difluoromethyl)-1-(6-(1-methyl-1H-pyrazol-4-yl)pyrrolo[1,2-b]pyridazin-4-yl)pyrrolidin-2-one]
–	–	–	–	< 7.00	5.30 to 6.00	5.30 to 6.00	5.30 to 6.00	Cc1ncn(-c2cc3c(N4C[C@@H](C)[C@@](C#N)(C5CC5)C4=O)ccnn3c2)n1 [Example 342, (3R,4S)-3-cyclopropyl-4-methyl-1-(6-(3-methyl-1H-1,2,4-triazol-1-yl)pyrrolo[1,2-b]pyridazin-4-yl)-2-oxopyrrolidine-3-carbonitrile]
< 7.00	6.00 to 7.00	5.30 to 6.00	5.30 to 6.00	–	–	–	–	CC[C@@H]1C[C@@](C#N)(C2CC2)C(=O)N1c1ccnn2cc(-c3cnn(C)c3)cc12 [Example 18, (3S,5R)-3-cyclopropyl-5-ethyl-1-(6-(1-methyl-1H-pyrazol-4-yl)pyrrolo[1,2-b]pyridazin-4-yl)-2-oxopyrrolidine-3-carbonitrile]
–	–	–	–	< 7.00	< 5.00	< 5.00	< 5.00	COc1ncc(-c2cn3nccc3c(N3C[C@@H](C)[C@@](C#N)(C4CC4)C3=O)n2)cn1 [Example 240, (3R,4S)-3-cyclopropyl-1-(6-(2-methoxypyrimidin-5-yl)pyrazolo[1,5-a]pyrazin-4-yl)-4-methyl-2-oxopyrrolidine-3-carbonitrile trifluoroacetate]
7.30 to 7.70	< 5.00	6.00 to 7.00	5.30 to 6.00	–	–	–	–	C[C@@H]1CN(c2ccnn3cc(-c4ncccc4F)cc23)C(=O)[C@]1(C#N)C1CC1 [Example 138, (3R,4S)-3-cyclopropyl-1-(6-(3-fluoropyridin-2-yl)pyrrolo[1,2-b]pyridazin-4-yl)-4-methyl-2-oxopyrrolidine-3-carbonitrile trifluoroacetate]
–	–	–	–	< 7.00	< 5.00	5.30 to 6.00	5.30 to 6.00	C[C@@H]1CN(c2nc(-c3ccc(F)nc3)cn3nccc23)C(=O)[C@]1(C#N)C1CC1 [Example 243, (3R,4S)-3-cyclopropyl-1-(6-(6-fluoropyridin-3-yl)pyrazolo[1,5-a]pyrazin-4-yl)-4-methyl-2-oxopyrrolidine-3-carbonitrile trifluoroacetate]
7.30 to 7.70	5.30 to 6.00	5.30 to 6.00	5.30 to 6.00	–	–	–	–	C[C@@H]1CN(c2ccnn3cc(-c4cccc5nccn45)cc23)C(=O)[C@]1(C#N)C1CC1 [Example 141, (3R,4S)-3-cyclopropyl-1-(6-(imidazo[1,2-a]pyridin-5-yl)pyrrolo[1,2-b]pyridazin-4-yl)-4-methyl-2-oxopyrrolidine-3-carbonitrile trifluoroacetate]
–	–	–	–	< 7.00	5.30 to 6.00	< 5.00	5.30 to 6.00	C[C@@H]1CN(c2nc(-c3cccnc3OC(F)F)cn3nccc23)C(=O)[C@]1(C#N)C1CC1 [Example 256, (3R,4S)-3-cyclopropyl-1-(6-(2-(difluoromethoxy)pyridin-3-yl)pyrazolo[1,5-a]pyrazin-4-yl)-4-methyl-2-oxopyrrolidine-3-carbonitrile trifluoroacetate]
7.00 to 7.30	5.00 to 5.30	5.30 to 6.00	5.30 to 6.00	–	–	–	–	Cc1ccc2nc(-c3cc4c(N5C[C@@H](C)[C@@](C#N)(C6CC6)C5=O)ccnn4c3)nn2c1 [Example 109, (3R,4S)-3-cyclopropyl-4-methyl-1-(6-(6-methyl-[1,2,4]triazolo[1,5-a]pyridin-2-yl)pyrrolo[1,2-b]pyridazin-4-yl)-2-oxopyrrolidine-3-carbonitrile trifluoroacetate]
< 7.00	6.00 to 7.00	5.00 to 5.30	< 5.00	–	–	–	–	C[C@@H]1C[C@](C#N)(C2CC2)C(=O)N1c1ccnn2cc(-c3cnn(C)c3)cc12 [Example 16, (3R,5R)-3-cyclopropyl-5-methyl-1-(6-(1-methyl-1H-pyrazol-4-yl)pyrrolo[1,2-b]pyridazin-4-yl)-2-oxopyrrolidine-3-carbonitrile]
7.30 to 7.70	5.30 to 6.00	5.30 to 6.00	5.30 to 6.00	–	–	–	–	Cc1cc(-c2cc3c(N4C[C@@H](C)[C@@](C#N)(C5CC5)C4=O)ccnn3c2)ncc1C#N [Example 144, 6-(4-((3R,4S)-3-cyano-3-cyclopropyl-4-methyl-2-oxopyrrolidin-1-yl)pyrrolo[1,2-b]pyridazin-6-yl)-4-methylnicotinonitrile trifluoroacetate]
–	–	–	–	< 7.00	5.00 to 5.30	5.30 to 6.00	5.30 to 6.00	C[C@@H]1CN(c2nc(-c3cnn(C)c3)cc3nccn23)C(=O)[C@]1(C#N)C1CC1 [Example 269, (3R,4S)-3-cyclopropyl-4-methyl-1-(7-(1-methyl-1H-pyrazol-4-yl)imidazo[1,2-c]pyrimidin-5-yl)-2-oxopyrrolidine-3-carbonitrile]
–	–	–	–	< 7.00	6.00 to 7.00	< 5.00	< 5.00	C[C@@H]1CN(c2n[nH]c3ncc(-c4cnn(C)c4)cc23)C(=O)[C@]1(C#N)C1CC1 [Example 274, (3R,4S)-3-cyclopropyl-4-methyl-1-(5-(1-methyl-1H-pyrazol-4-yl)-1H-pyrazolo[3,4-b]pyridin-3-yl)-2-oxopyrrolidine-3-carbonitrile]
–	–	–	–	< 7.00	< 5.00	< 5.00	< 5.00	C[C@@H]1CN(c2cc(-c3cnn(C)c3)cc3nccn23)C(=O)[C@]1(C#N)C1CC1 [Example 287, (3R,4S)-3-cyclopropyl-4-methyl-1-(7-(1-methyl-1H-pyrazol-4-yl)imidazo[1,2-a]pyridin-5-yl)-2-oxopyrrolidine-3-carbonitrile]
< 7.00	5.30 to 6.00	< 5.00	5.00 to 5.30	–	–	–	–	C[C@@H]1CN(c2ccnn3cc(-c4nnc5n4CCCC5)cc23)C(=O)[C@]1(C#N)C1CC1 [Example 105, (3R,4S)-3-cyclopropyl-4-methyl-2-oxo-1-(6-(5,6,7,8-tetrahydro-[1,2,4]triazolo[4,3-a]pyridin-3-yl)pyrrolo[1,2-b]pyridazin-4-yl)pyrrolidine-3-carbonitrile trifluoroacetate]
< 7.00	5.30 to 6.00	5.30 to 6.00	5.30 to 6.00	–	–	–	–	Cn1cc(-c2cc3c(N4C[C@H](C(F)F)[C@@](C#N)(C5CC5)C4=O)ccnn3c2)cn1 (racemic) [Example 152, rac-(3R,4R)-3-cyclopropyl-4-(difluoromethyl)-1-(6-(1-methyl-1H-pyrazol-4-yl)pyrrolo[1,2-b]pyridazin-4-yl)-2-oxopyrrolidine-3-carbonitrile]
7.70 to 8.30	6.00 to 7.00	6.00 to 7.00	6.00 to 7.00	–	–	–	–	C[C@@H]1CN(c2ccnn3cc(-c4cnn5c4CCCC5)cc23)C(=O)[C@]1(C#N)C1CC1 [Example 173, (3R,4S)-3-cyclopropyl-4-methyl-2-oxo-1-(6-(4,5,6,7-tetrahydropyrazolo[1,5-a]pyridin-3-yl)pyrrolo[1,2-b]pyridazin-4-yl)pyrrolidine-3-carbonitrile]
< 7.00	5.30 to 6.00	< 5.00	5.30 to 6.00	–	–	–	–	Cn1cc(-c2cc3c(N4CC[C@@H](C5CC5)C4=O)ccnn3c2)cn1 (single isomer, unassigned) [Example 37]
